Results as given in US5728830A, “Farnesyltransferase inhibitor” (Kyowa Hakko Kogyo Co., Ltd., priority 1993, dated 1998).
In brackets after ≈: the same amount, converted by molar mass. Read-outs that look alike come from different tables or passages of the source.

Experiments:
[1] = target: T1, farnesyltransferase (FTase) (Bos taurus, UniProt P29702+P49355); test: Farnesyltransferase Inhibitory Activity ([3H]SPA FTase assay, farnesylation of C-terminal peptide of lamin B); assay type: biochemical; conditions: bovine brain crude enzyme
T1 construct: An extract of minced bovine brain was subjected to column chromatography on DEAE-Sephacel (Pharmacia); from tissue; host or cells: bovine brain
Procedure: Farnesyltransferase Inhibitory Activity
An extract of minced bovine brain was subjected to column chromatography on DEAE-Sephacel (Pharmacia). The active fraction was concentrated by ultrafiltration and dialyzed against a mixture of 20 mM Tris-HCl (pH 8.0), 50 mM NaCl, […], 1 mM dithiothreitol (DTT), and 0.2 mM phenylmethylsulfonyl fluoride (PMSF). The resulting dialysate was used as a crude enzyme liquid of farnesyltransferase (FTase). The measurement of activity was carried out by means of an FTase [^3 H]SPA enzyme assay kit (Amersham) using the enzyme obtained by the above method.

[2] = tested on: BALB 3T3/H-ras cells; test: Anticell Activity (growth inhibition of BALB 3T3 cells transformed by the oncogene H-ras, Giemsa staining); assay type: cell-based; conditions: Mus musculus, 72 hours, read-out: IC50 Anti-BALB 3T3/H-ras Cell Activity
Procedure: The anticell activity was measured using BALB 3T3 cells transformed by the oncogene H-ras (hereinafter referred to as BALB 3T3/H-ras cells).
BALB 3T3/H-ras cells were suspended in a DME medium (Nissui) containing 10% bovine fetal serum (hereinafter referred to as medium A) to a cell concentration of 3.0×10^4 cells/ml. Each well of a 96-well microtiter plate was inoculated with 0.1 ml of the cell suspension, and the system was cultured in a CO2 gas incubator at 37° C. for 20 hours. To each well was added 0.1 ml of a sample (test compound) diluted appropriately with medium A, followed by culturing in the CO2 gas incubator at 37° C. for 72 hours. The culture supernatant was removed, and the residue was washed once with physiological saline and treated with 0.1 ml of methanol for 10 minutes to immobilize the cells. The cells were stained with 0.1 ml of a Giemsa staining solution [Giemsa staining stock solution Merck Art9204 (Merck & Co., Inc.):physiological saline=1:10] for 5 minutes. The staining solution was removed, and the residue was washed once with 0.2 ml of water. The pigment was extracted with 0.2 ml of 0.1N hydrochloric acid, and the absorbance at 620 nm was measured with a microplate reader.

[3] = tested on: Candida albicans ATCC 10231; test: Antibacterial Activity, agar dilution method, Candida albicans; assay type: cell-based
Procedure: (§1) The antibacterial activity was measured by the agar dilution method using a medium (pH 7) prepared by dissolving 3 g of Bacto-tryptone (Difco), 3 g of meat extract, 1 g of yeast extract, 1 g of glucose, and 16 g of agar in 1 liter of water. The antibacterial activity of Compounds I are expressed in terms of minimum growth inhibitory concentration (MIC).
CA; Candida albicans ATCC 10231

[4] = tested on: Enterococcus faecium ATCC 10541; test: Antibacterial Activity, agar dilution method, Enterococcus faecium; assay type: cell-based
Procedure: as §1
EF; Enterococcus faecium ATCC 10541

[5] = tested on: Bacillus subtilis No. 10707; test: Antibacterial Activity, agar dilution method, Bacillus subtilis; assay type: cell-based
Procedure: as §1
BS; Bacillus subtilis No. 10707

[6] = tested on: isogenic tumor in K-BALB mice; test: Antitumor Activity on Isogenic Tumor System in K-BALB Mice; assay type: in vivo; conditions: intraperitoneal, 5 consecutive days from 7th day after transplantation, BALB/c mouse
Procedure: Antitumor Activity on Isogenic Tumor System in K-BALB Mice
The antitumor activity on an isogenic tumor system in K-BALB mice was measured according to the method described in Proc. Natl. Acad. Sci., 90, 2281 (1993). That is, an isogenic tumor in K-BALB mice was resected from a donor mouse, and a 2×2×2 (8) mm^3 tumor piece was transplanted to the subcutaneous site of the abdomen of a BALB/c mouse by means of a trocar. After the graft survival was confirmed on the 7th day from the transplantation, a test compound was intraperitoneally administered for 5 consecutive days from the same day. The longer diameter and shorter diameter of the tumor were measured with a sliding gauge, and the tumor volume was calculated according to the formula; (longer diameter)×(shorter diameter)^2 /2 [Cancer Chemother. Rep., Part III, 3, 1 (1972)]. The antitumor effect was evaluated in terms of T/C, the ratio of the tumor volume of a test compound-treated group (T) to that of an untreated group (C).

[7] = ATCC10231, Candida albicans ATCC 10231, agar dilution, pH 7, read-out: MIC CA
[8] = Enterococcus faecium, ATCC10541, pH 7, read-out: MIC EF
[9] = Bacillus subtilis, NO.10707, pH 7, read-out: MIC BS
[10] = Candida albicans, ATCC10231, pH 7, read-out: MIC CA
[11] = Bacillus subtilis No. 10707, agar dilution, pH 7, read-out: MIC BS

| Structure (SMILES) | IC50 [1] [µM] | IC50 [2] [µM] | MIC [5, 9] [µg/mL] | further results |
| --- | --- | --- | --- | --- |
| O=C(Oc1ccccc1)SC1C(=O)N(c2ccccc2)C(SC(=O)Oc2ccccc2)C(=O)N1c1ccccc1 (centres unmarked) [Compound I-10] | 25 | 1 | – | MIC [3, 7]: 42 µg/mL (≈ 73.6 µM) |
| COCN1C(=O)C(SC(C)=O)N(COC)C(=O)C1SC(C)=O (centres unmarked) [Compound I-5] | 8 | 0.4 | – | – |
| CCOC(=O)SC1C(=O)N(c2ccccc2)C(SC(=O)OCC)C(=O)N1c1ccccc1 (centres unmarked) [Compound I-20] | 45 | – | – | – |
| COc1ccccc1N1C(=O)C2(CO)SSC1(CO)C(=O)N2C (centres unmarked) [Compound I-15] | 7 | 0.3 | 0.33 (≈ 0.926 µM) | MIC [4, 8]: 1.3 µg/mL (≈ 3.65 µM) |
| CN1C(=O)C2SSC1(CO)C(=O)N2c1ccccc1 (centres unmarked) [Compound I-13] | 5 | 0.1 | 0.041 (≈ 0.138 µM) | MIC [3, 10]: 42 µg/mL (≈ 142 µM); MIC [4, 8]: 0.16 µg/mL (≈ 0.54 µM); T/C (ratio of tumor volume, treated to untreated) ([6]; 0.75 mg/kg): 0.44 |
| O=C1C2SSC(C(=O)N2c2ccccc2)N1c1ccccc1 [Compound I-8] | 10 | 0.7 | – | – |
| CN1C(=O)C2(COCc3ccccc3)SSC1(COCc1ccccc1)C(=O)N2c1ccccc1 (centres unmarked) [Compound I-12] | 3 | 1 | 42 (≈ 82.9 µM) | MIC [3, 10]: 42 µg/mL (≈ 82.9 µM) |
| O=C1C2SSC(C(=O)N2Cc2ccccc2)N1Cc1ccccc1 [Compound I-19] | 7 | – | 83 (≈ 233 µM) | MIC [3, 10]: 2.6 µg/mL (≈ 7.29 µM); MIC [4, 8]: 83 µg/mL (≈ 233 µM) |
| CN1C(=O)C2(CO)SSC1(CO)C(=O)N2c1ccccc1 (centres unmarked) [Compound I-21] | 3 | 0.2 | 21 (≈ 64.3 µM) | MIC [4, 8]: 0.33 µg/mL (≈ 1.01 µM) |
| CC(=O)SC1C(=O)N(c2ccccc2)C(SC(C)=O)C(=O)N1C (centres unmarked) [Compound I-1] | 5 | 0.2 | – | – |
| CC(=O)OCC1(SC(C)=O)C(=O)N(c2ccccc2)C(SC(C)=O)C(=O)N1C (centres unmarked) [Compound I-16] | 20 | 1.7 | 5.2 (≈ 12.2 µM) | MIC [4, 8]: 42 µg/mL (≈ 98.9 µM) |
| CC(=O)SC1C(=O)N(Cc2ccccc2)C(SC(C)=O)C(=O)N1Cc1ccccc1 (centres unmarked) [Compound I-6] | 7 | 4 | – | MIC [3, 7]: 10 µg/mL (≈ 22.6 µM); MIC ([4]; ATCC10541, Enterococcus faecium ATCC 10541, agar dilution, pH 7, read-out: MIC EF): 42 µg/mL (≈ 94.9 µM); MIC [5, 11]: 21 µg/mL (≈ 47.5 µM) |
| COc1ccc(Br)cc1N1C(=O)C(SC(C)=O)N(C)C(=O)C1SC(C)=O (centres unmarked) [Compound I-3] | 9 | 1.5 | – | – |
| COc1ccccc1N1C(=O)C(SC(C)=O)N(C)C(=O)C1SC(C)=O (centres unmarked) [Compound I-2] | 9 | 0.5 | – | – |
| COc1ccccc1N1C(=O)C2(CO)SSC1C(=O)N2C (centres unmarked) [Compound I-14] | 6 | 0.3 | 7.3 (≈ 22.4 µM) | – |
| CN1C(=O)C2SSC1C(=O)N2c1ccccc1 (centres unmarked) [Compound I-7] | 60 | 0.2 | – | – |
| COCN1C(=O)C(SC(=O)Oc2ccccc2)N(COC)C(=O)C1SC(=O)Oc1ccccc1 (centres unmarked) [Compound I-17] | 5 | 0.3 | – | MIC [5, 11]: 42 µg/mL (≈ 82.9 µM) |
| O=C(SC1C(=O)N(c2ccccc2)C(SC(=O)c2ccccc2)C(=O)N1c1ccccc1)c1ccccc1 (centres unmarked) [Compound I-9] | 9 | 3 | – | – |
| CC(=O)SC1C(=O)N(c2ccccc2)C(SC(C)=O)C(=O)N1c1ccccc1 (centres unmarked) [Compound I-4] | 12 | 0.9 | – | T/C (ratio of tumor volume, treated to untreated) ([6]; 5.0 mg/kg): 0.41 |
| CN1C(=O)C2SSC1(COCc1ccccc1)C(=O)N2c1ccccc1 (centres unmarked) [Compound I-11] | 3 | 3 | 7.3 (≈ 18.9 µM) | MIC [3, 10]: 0.46 µg/mL (≈ 1.19 µM) |
